Literature values in patent US20240230688A1, “METHOD FOR DETERMINING PERSONALIZED OMEGA-3 DOSE” (SOCIETE DES PRODUITS NESTLE S.A., priority 2021, published 2024).

Tested on: pregnant women
Conditions: women who took supplement during pregnancy compared to those who did not

CC/C=C\C/C=C\C/C=C\C/C=C\C/C=C\C/C=C\CCC(=O)O [DHA supplement, (4Z,7Z,10Z, 13Z, 16Z, 19Z)-4,7,10,13,16, 19-Docosahexaenoic acid]
less likely to have early preterm birth: 42%
